# Reference: patent US20200069691A1, “HETEROCYCLIC COMPOUNDS AS HIV PROTEASE INHIBITORS” (Merck Sharp & Dohme Corp., priority 2016, published 2020)
# Molecular target: T1, wild-type HIV-1 protease (Human immunodeficiency virus type 1 group M subtype B, UniProt P04585)
# T1 construct: Escherichia coli expressed wild-type HIV-1 protease protein
# Assay: Assay for Inhibition of Microbial Expressed HIV Protease (peptide substrate cleavage, LC-MS/MS readout)
# Type: biochemical
# Settings: E. coli expressed wild-type HIV-1 protease, mean of at least two independent experiments, read-out: HIV Pr Enzyme HIV1 PR IC50
# How it was run: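 E. coli-expressed wild-type HIV-1 protease ([…]) was preincubated with inhibitor 30 min at room temperature in pH 5.5 acetate buffer (100 mM NaCl, 0.1% BSA). Then 400 μM octapeptide substrate was added and reacted 1 h at 30 °C; inhibition came from LC-MS/MS product peak areas, mean of ≥2 experiments.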
row,Structure (SMILES),IC50 [nM]
1,"N=C1N[C@](CCCC(F)(F)F)(c2ccc(F)cc2)C(=O)N1Cc1ccc(C(F)(F)F)c(C(=O)N2Cc3cnc(NC4CCC4)nc3C2)c1 [Compound 85, (5R)-3-[3-{[2-(cyclobutylamino)-5,7-dihydro-6H-pyrrolo[3,4-d]pyrimidin-6-yl]carbonyl}-4-(trifluoromethyl)benzyl]-5-(4-fluorophenyl)-2-imino-5-(4,4,4-trifluorobutyl)imidazolidin-4-one]",14.4
2,"N=C1N[C@](CCCC(F)(F)F)(c2ccc(F)cc2)C(=O)N1Cc1ccc(C(F)(F)F)c(C(=O)N2Cc3cnc(-c4cccc(F)c4)nc3C2)c1 [Compound 86, (5R)-5-(4-fluorophenyl)-3-[3-{[2-(3-fluorophenyl)-5,7-dihydro-6H-pyrrolo[3,4-d]pyrimidin-6-yl]carbonyl}-4-(trifluoromethyl)-benzyl]-2-imino-5-(4,4,4-trifluorobutyl)imidazolidin-4-one]",14.5
3,"N=C1N[C@](CCCC(F)(F)F)(c2ccc(F)cc2)C(=O)N1Cc1ccc(C(F)(F)F)c(C(=O)N2CCN3C(=O)OCC3C2)c1 (stereo partly drawn) [Compound 87, 7-{[5-{[(4R)-4-(4-fluorophenyl)-2-imino-5-oxo-4-(4,4,4-trifluoro-butyl)imidazolidin-1-yl]methyl}-2-(trifluoromethyl)phenyl]carbonyl}hexahydro[1,3] oxazolo[3,4-a]pyrazin-3-one]",14.8
4,"N=C1N[C@](CCCC(F)(F)F)(c2ccc(F)cc2)C(=O)N1Cc1ccc(C(F)(F)F)c(C(=O)N2CCN(c3cncnc3)CC2)c1 [Compound 88, (5R)-5-(4-fluorophenyl)-2-imino-3-{3-[(4-pyrimidin-5-ylpiperazin-1-yl)carbonyl]-4-(trifluoromethyl)-benzyl}-5-(4,4,4-trifluorobutyl)-imidazolidin-4-one]",15.2
5,"N=C1N[C@](CCCC(F)(F)F)(c2ccc(F)cc2)C(=O)N1Cc1ccc(C(F)(F)F)c(C(=O)N2Cc3cnc(-c4ccc(-n5cccn5)nc4)nc3C2)c1 [Compound 89, (5R)-5-(4-fluorophenyl)-2-imino-3-[3-({2-[6-(1H-pyrazol-1-yl)pyridin-3-yl]-5,7-dihydro-6H-pyrrolo[3,4-d]pyrimidin-6-yl}carbonyl)-4-(trifluoromethyl)benzyl]-5-(4,4,4-trifluorobutyl)imidazolidin-4-one]",15.7
6,"CC(C)(O)C(=O)N1CCN(C(=O)c2cc(CN3C(=N)N[C@](CCCC(F)(F)F)(c4ccc(F)cc4)C3=O)ccc2C(F)(F)F)CC1 [Compound 90, (5R)-5-(4-fluorophenyl)-3-[3-{[4-(2-hydroxy-2-methylpropanoyl)-piperazin-1-yl]carbonyl}-4-(trifluoromethyl)benzyl]-2-imino-5-(4,4,4-trifluorobutyl)imidazolidin-4-one]",15.8
7,"N=C1NC(CCC2CC2)(c2cc(F)cc(F)c2)C(=O)N1Cc1ccc(C(F)(F)F)c(C(=O)N2CCn3c(nnc3C(F)(F)F)C2)c1 (stereo not shown) [Compound 91, 5-(2-cyclopropylethyl)-5-(3,5-difluorophenyl)-2-imino-3-[4-(trifluoromethyl)-3-{[3-(trifluoro-methyl)-5,6-dihydro[1,2,4]triazolo-[4,3-a]pyrazin-7(8H)-yl]carbonyl}-benzyl]imidazolidin-4-one]",16.3
8,"CS(=O)(=O)N1CCN(C(=O)c2cc(CN3C(=N)N[C@](CCCC(F)(F)F)(c4ccc(F)cc4)C3=O)ccc2C(F)(F)F)CC1 [Compound 92, (5R)-5-(4-fluorophenyl)-2-imino-3-[3-{[4-(methylsulfonyl)piperazin-1-yl]carbonyl}-4-(trifluoromethyl)-benzyl]-5-(4,4,4-trifluorobutyl)-imidazolidin-4-one]",17.3
9,"N=C1N[C@](CCC2CC2)(c2ccc(F)cc2)C(=O)N1[C@@H]1CCCCc2ccc(C(=O)N3Cc4nccnc4C3)cc21 [Compound 93, (5R)-5-(2-cyclopropylethyl)-3-[(5R)-3-(5,7-dihydro-6H-pyrrolo-[3,4-b]pyrazin-6-ylcarbonyl)-6,7,8,9-tetrahydro-5H-benzo-[7]annulen-5-yl]-5-(4-fluoro-phenyl)-2-iminoimidazolidin-4-one]",18.5
10,"N=C1N[C@](CCCC(F)(F)F)(c2ccc(F)cc2)C(=O)N1Cc1ccc(C(F)(F)F)c(C(=O)N2Cc3cnc(-c4ccccc4)nc3C2)c1 [Compound 94, (5R)-5-(4-fluorophenyl)-2-imino-3-{3-[(2-phenyl-5,7-dihydro-6H-pyrrolo[3,4-d]pyrimidin-6-yl)carbonyl]-4-(trifluoromethyl)-benzyl}-5-(4,4,4-trifluorobutyl)-imidazolidin-4-one]",19.2
11,"N=C1N[C@](CCCC(F)(F)F)(c2ccc(F)cc2)C(=O)N1Cc1ccc(C(F)(F)F)c(C(=O)N2Cc3cnc(-c4cccc(-n5nccn5)c4)nc3C2)c1 [Compound 95, (5R)-5-(4-fluorophenyl)-2-imino-3-[3-({2-[3-(2H-1,2,3-triazol-2-yl)phenyl]-5,7-dihydro-6H-pyrrolo-[3,4-d]pyrimidin-6-yl}carbonyl)-4-(trifluoromethyl)benzyl]-5-(4,4,4-trifluorobutyl)imidazolidin-4-one]",19.4
12,"COC(=O)Nc1ncc2c(n1)CN(C(=O)c1ccc3c(c1)[C@H](N1C(=N)N[C@](CCC(C)C)(c4ccccc4)C1=O)CC3)C2 [Compound 96, methyl [6-({(3R)-3-[(4R)-2-imino-4-(3-methylbutyl)-5-oxo-4-phenylimidazolidin-1-yl]-2,3-dihydro-1H-inden-5-yl}carbonyl)-6,7-dihydro-5H-pyrrolo[3,4-d]pyrimidin-2-yl]carbamate]",20.4
13,"N=C1N[C@](CCCC(F)(F)F)(c2ccc(F)cc2)C(=O)N1Cc1ccc(C(F)(F)F)c(C(=O)N2Cc3cnc(-c4ccc(F)cc4)nc3C2)c1 [Compound 97, (5R)-5-(4-fluorophenyl)-3-[3-{[2-(4-fluorophenyl)-5,7-dihydro-6H-pyrrolo[3,4-d]pyrimidin-6-yl]carbonyl}-4-(trifluoromethyl)-benzyl]-2-imino-5-(4,4,4-trifluorobutyl)imidazolidin-4-one]",20.5
14,"N=C1N[C@](CCCC(F)(F)F)(c2ccc(F)cc2)C(=O)N1Cc1ccc(C(F)(F)F)c(C(=O)N2CCn3cnnc3C2)c1 [Compound 98, (5R)-3-[3-(5,6-dihydro[1,2,4]triazolo[4,3-a]pyrazin-7(8H)-ylcarbonyl)-4-(trifluoromethyl)benzyl]-5-(4-fluorophenyl)-2-imino-5-(4,4,4-trifluorobutyl)imidazolidin-4-one]",20.7
15,"N=C1N[C@](CCCC(F)(F)F)(c2ccc(F)cc2)C(=O)N1Cc1ccc(C(F)(F)F)c(C(=O)N2CCN(c3ccccn3)CC2)c1 [Compound 99, (5R)-5-(4-fluorophenyl)-2-imino-3-{3-[(4-pyridin-2-ylpiperazin-1-yl)carbonyl]-4-(trifluoromethyl)-benzyl}-5-(4,4,4-trifluorobutyl)-imidazolidin-4-one]",21.4
16,"CC(C)CC[C@]1(c2ccc(F)cc2)NC(=N)N(C(c2ccc(C(F)(F)F)c(C(=O)N3Cc4nccnc4C3)c2)C2CCCC2)C1=O (stereo partly drawn) [Compound 101, (5R)-3-{cyclopentyl[3-(5,7-dihydro-6H-pyrrolo[3,4-b]pyrazin-6-ylcarbonyl)-4-(trifluoromethyl)-phenyl]methyl}-5-(4-fluorophenyl)-2-imino-5-(3-methylbutyl)-imidazolidin-4-one]",23.2
17,"C=CCOC(=O)N1CCN(C(=O)c2cc(CN3C(=N)N[C@](CCCC(F)(F)F)(c4ccc(F)cc4)C3=O)ccc2C(F)(F)F)CC1 [Compound 102, prop-2-en-1-yl 4-{[5-{[(4R)-4-(4-fluorophenyl)-2-imino-5-oxo-4-(4,4,4-trifluorobutyl)imidazolidin-1-yl]methyl}-2-(trifluoromethyl)-phenyl]carbonyl} piperazine-1-carboxylate]",23.2
18,"N=C1N[C@](CCC2CC2)(c2cccc(F)c2)C(=O)N1Cc1ccc(C(F)(F)F)c(C(=O)N2CCn3c(nnc3C(F)(F)F)C2)c1 [Compound 103, (5R)-5-(2-cyclopropylethyl)-5-(3-fluorophenyl)-2-imino-3-[4-(trifluoromethyl)-3-{[3-(trifluoro-methyl)-5,6-dihydro[1,2,4]triazolo-[4,3-a]pyrazin-7(8H)-yl]carbonyl}-benzyl]imidazolidin-4-one]",23.8
19,"Cc1cccc(-c2ncc3c(n2)CN(C(=O)c2cc(CN4C(=N)N[C@](CCCC(F)(F)F)(c5ccc(F)cc5)C4=O)ccc2C(F)(F)F)C3)c1 [Compound 104, (5R)-5-(4-fluorophenyl)-2-imino-3-[3-{[2-(3-methylphenyl)-5,7-dihydro-6H-pyrrolo[3,4-d]pyrimidin-6-yl]carbonyl}-4-(trifluoromethyl)benzyl]-5-(4,4,4-trifluorobutyl)imidazolidin-4-one]",24.2
20,"N=C1NC(C[C@@H]2CCOC2)(c2ccccc2)C(=O)N1Cc1ccc(C(F)(F)F)c(C(=O)N2CCn3c(nnc3C(F)(F)F)C2)c1 (stereo partly drawn) [Compound 105, 2-imino-5-phenyl-5-[(3R)-tetrahydrofuran-3-ylmethyl]-3-[4-(trifluoromethyl)-3-{[3-(trifluoro-methyl)-5,6-dihydro[1,2,4]triazolo-[4,3-a]pyrazin-7(8H)-yl]carbonyl}-benzyl]limidazolidin-4-one]",24.7
21,"N=C1N[C@](CCCC(F)(F)F)(c2ccc(F)cc2)C(=O)N1Cc1ccc(C(F)(F)F)c(C(=O)N2Cc3cnc(N4CCCC4)nc3C2)c1 [Compound 106, (5R)-5-(4-fluorophenyl)-2-imino-3-{3-[(2-pyrrolidin-1-yl-5,7-dihydro-6H-pyrrolo[3,4-d]pyrimidin-6-yl)carbonyl]-4-(trifluoromethyl)-benzyl}-5-(4,4,4-trifluorobutyl)-imidazolidin-4-one]",25.4
22,"N=C1N[C@](CCC2CC2)(c2ccc(F)cc2)C(=O)N1[C@@H]1CCOc2ccc(C(=O)N3Cc4nccnc4C3)cc21 [Compound 107, (5R)-5-(2-cyclopropylethyl)-3-[(4R)-6-(5,7-dihydro-6H-pyrrolo-[3,4-b]pyrazin-6-ylcarbonyl)-3,4-dihydro-2H-chromen-4-yl]-5-(4-fluorophenyl)-2-iminoimidazolidin-4-one]",25.9
